The text below walks through data of patent publication US12023334B2, “Composition including rilpivirine and method for treating tumors or cancer” (APTORUM THERAPEUTICS LIMITED, priority 2019, dated 2024).

Data set [1] concerns SH-SY5Y cell line. Description: MTT cell proliferation assay, SH-SY5Y. It counts as cell-based. The procedure:
In the present invention, the IC50 concentrations required to inhibit the activity of IMR-32 cell line and other neuroblastoma cell lines were determined for rilpivirine and other chemotherapeutic agents, and presented on the two-coordinate plot with x- and y-axes, forming the two points (IC50, rilpivirine, 0) and (0, IC50, chemotherapeutic agents). […] Moreover, the concentration or ratios of rilpivirine in combination with chemotherapeutic agents which provide the same inhibition effect are denoted as point (Crilpivirine, 50, Cchemotherapeutic agents, 50) in the same plot.
The combination index provides a quantitative measurement of the drug-drug interaction at the given effect level. The combination index (CI) is calculated by following equation: […]
The IMR-32, SK-N-SH, SH-SY5Y and SK-N-BE(2) tumor cell lines were purchased from American Type Culture Collection (ATCC, Manassas, VA). […] The cells were incubated for 72 hours and then cell proliferation was measured by 3-(4,5-dimethyl-2-thiazolyl)-2,5-diphenyl-2H-tetrazolium bromide (MTT) colorimetric assays (Sigma-Aldrich, Inc., St. Louis, MO). […] Absorbance of each well was measured with a spectrophotometer (uQuant SpectroMAX Gemini Dual-scanning microplate spectro, Bio-tek Instrument Inc.) at 550 nm. Growth inhibition was expressed as the ratio of the mean absorbance of treated cells relative to that of the control.

The test system of data set [2] is MOLT-16. Description: EC50 in cancer cell line, rilpivirine alone. To be noted: Homo sapiens, Acute lymphoblastic leukemia. It counts as cell-based.
The subject of data set [3] is Jurkat. The data set is described as follows: EC50 in cancer cell line, rilpivirine alone. Format: cell-based. Particulars: Homo sapiens, Acute lymphoblastic leukemia.
The subject of data set [4] is MOLT-4. The data set is described as follows: EC50 in cancer cell line, rilpivirine alone. Format: cell-based. To be noted: Homo sapiens, Acute lymphoblastic leukemia.
Data set [5] concerns J-RT3-T3-5. Description: EC50 in cancer cell line, rilpivirine alone. Format: cell-based. Particulars: Homo sapiens, Acute T-cell leukemia.
Data set [6] concerns 647-V. The data set is described as follows: EC50 in cancer cell line, rilpivirine alone. It counts as cell-based. To be noted: Homo sapiens, Bladder.
The test system of data set [7] is T47D. The data set is described as follows: EC50 in cancer cell line, rilpivirine alone. Format: cell-based. To be noted: Homo sapiens, Breast.
Data set [8] deals with RKO-AS45-1. Description: EC50 in cancer cell line, rilpivirine alone. Format: cell-based. Particulars: RKOAS451, Colon.
Data set [9] concerns U-87 MG. The data set is described as follows: EC50 in cancer cell line, rilpivirine alone. It counts as cell-based. Particulars: Homo sapiens, Glioblastoma/malignant glioma.
Data set [10] has as its system TUR. Description: EC50 in cancer cell line, rilpivirine alone. To be noted: Histiocytic lymphoma. It counts as cell-based.
In data set [11] the test system is U-937. The data set is described as follows: EC50 in cancer cell line, rilpivirine alone. To be noted: Homo sapiens, Histiocytic lymphoma. Format: cell-based.
Data set [12] deals with SR. The data set is described as follows: EC50 in cancer cell line, rilpivirine alone. Particulars: Homo sapiens, Large cell immunoblastic lymphoma. It counts as cell-based.
For data set [13], the system named is HUH-6. Description: EC50 in cancer cell line, rilpivirine alone. Particulars: Homo sapiens, Liver. Format: cell-based.
Data set [14] has as its system D283Med. The data set is described as follows: EC50 in cancer cell line, rilpivirine alone. Format: cell-based. To be noted: Homo sapiens, D283 Med, Medulloblastoma.
The subject of data set [15] is HMCB. Description: EC50 in cancer cell line, rilpivirine alone. It counts as cell-based. Particulars: Homo sapiens, Melanoma.
Data set [16] relates to SNU-16. The data set is described as follows: EC50 in cancer cell line, rilpivirine alone. Particulars: Homo sapiens, Stomach. It counts as cell-based.
Data set [17] concerns cleaved poly (ADP-ribose) polymerase (PARP) and phosphor-histone H2A.X (p-H2A.X). Description: Expression of cleaved PARP and p-H2A.X in SK-N-SH. Format: cell-based. To be noted: increasing rilpivirine 0.12, 0.37, 1.11, 3.3, and 10 μM.
For data set [18] the test system is unchanged. Description: Expression of cleaved PARP and p-H2A.X in SH-SY5Y. It counts as cell-based. To be noted: increasing rilpivirine 0.12, 0.37, 1.11, 3.3, and 10 μM.
Data set [19] in a line: Xenograft mouse model, body weight and signs of overt toxicity. To be noted: rilpivirine 400 mg/kg once daily for 21 consecutive days, oral. Format: in vivo, female BALB/c nude mice. The procedure: This study employed female BALB/c nude mice, aged 4-5 weeks, obtained from BioLasco Taiwan (under Charles River Laboratories Licensee). The animals were housed in individually ventilated cages (IVC, 36 Mini Isolator system). The allocation for 4 animals was 27×20×14 in cm. All the animals were maintained in a hygienic environment under controlled temperature (20-24° C.) and humidity (30%-70%) with 12-hour light/dark cycle. Free access to standard lab diet [MFG (Oriental Yeast Co., Ltd., Japan)] and autoclaved tap water were granted. All aspects of this work including housing, experimentation, and animal disposal were performed in general accordance with the “Guide for the Care and Use of Laboratory Animals: Eighth Edition” (National Academies Press, Washington, D.C., 2011) in our AAALAC-accredited laboratory animal facility. In addition, the animal care and use protocol was reviewed and approved by the IACUC at Pharmacology Discovery Services, Taiwan.
The IMR-32 tumor cell line was purchased from American Type Culture Collection (ATCC CCL-127, neuroblastoma) and cultured in Pharmacology Discovery Services, Taiwan. The cells were cultured in MEM medium containing 10% fetal bovine serum (FBS), 1 mM sodium pyruvate and 1 mM NEAA at 37° C. in 5% CO2 incubator. Female BALB/c nude mice were used as described in the preceding section. Viable IMR-32 cells (ATCC CCL-127) were subcutaneously (SC) implanted (1×10^7 cells in 1:1 matrigel/complete media mixture at 0.2 mL/mouse) into the right flank of female BALB/c nude mice. Forty-one days post tumor cell implantation (group mean tumor volumes ranging 128 mm^3-130 mm^3), all the animals were randomized into sixteen study groups, each containing eight animals, and dose administrations were initiated (denoted as Day 1). All the experiments were conducted using protocols and conditions approved by the institutional animal care and use committee. The tumor volume, body weight, mortality, and signs of overt toxicity were monitored and recorded twice weekly for 28 days.

With `Cc1cc(/C=C/C#N)cc(C)c1Nc1ccnc(Nc2ccc(C#N)cc2)n1` [rilpivirine], the “growth of neuroblastoma cell line under rilpivirine treatment” value in data set [1] was “successfully inhibited”. In [1] (Homo sapiens, rilpivirine alone, 72 hours), the IC50 was found to be 3.12 µM. For the same molecule, the EC50 stood at 3.38 µM in data set [2]; 3.68 µM in data set [3]; 3.75 µM in [4]; 4.04 µM in data set [5]; 12.3 µM in data set [6]; 3.23 µM in data set [7]. Besides, the EC50 in [8] is 4.4 µM; in data set [9], 14.4 µM; in data set [10] it was 2.08 µM; in data set [11], 3.37 µM; in data set [12], 3.78 µM; in data set [13], 2.41 µM. Besides, the figures for the EC50 in [14], in data set [15] and in data set [16] were 3.54 µM, 3.49 µM and 4.23 µM, respectively. Further, the “expression of cleaved PARP and p-H2A.X” value in [17] and in [18] was “increased gradually” each time. In data set [19], the body weight loss result was “not associated with body weight loss”. In addition, the overt toxicities result in data set [19] was “no overt toxicities were observed”. The tolerability result in [19] was “well tolerated”.
